Experimental data taken from US7927785B2, “Methods for in vitro expansion of hematopoietic stem cells” (The Board of Trustees of the University of Illinois, priority 2002, dated 2011).

Experiments:
Format in all cases: cell-based
[1] = test system: adult human bone marrow CD34+ cells; experiment: Phenotypic analysis (FACS) of marrow CD34+ cells after ex vivo culture
Description: (§1) To promote cell division of isolated CD34^+ cells, a stroma-free suspension culture was established as previously described (Bazil et al., 1995). Tissue culture dishes (35 mm; Costar, Corning, N.Y.) were seeded with 1×10^5 CD34^+cells/well in 2.5 mL Iscove modified Dulbecco medium (IMDM) (Biowhittaker, Walkersville, Md.) containing 30% FBS and a cocktail of cytokines specifically thought to promote exit from G0/G1 in primitive HSC populations which consisted of 100 ng/mL recombinant stem cell factor (SCF), 100 ng/mL FLT-3 ligand, 100 ng/mL thrombopoetin (TPO) and 50 ng/mL of interleukin (IL)-3, (all from Amgen Inc., Thousand Oaks, Calif.).
(§2) Cells were maintained in the media and incubated at 37° C. in a 100%-humidified atmosphere containing 5% CO2 for 48 hours. After intial 16 hours of incubation cells were exposed to the demethylating agent, 5-aza2′deoxycitidine (5azaD) (Sigma Chemicals, St. Louis, Mo.) at a concentration of 10^−6M. After 48 hours, cells were washed by centrifugation and then equally distributed to new tissue culture dishes in 2.5 mL IMDM supplemented with 30% FBS containing cytokines known to promote terminal differentiation of HSC into multiple hematopoietic lineages. The cocktail of cytokines contained 100 ng/mL of SCF, 50 ng/ml of granulocyte colony-stimulating factor (G-CSF), 50 ng/mL of IL-3, 50 ng/ml of IL-6 and 5 units (U)/mL of recombinant erythropoietin (EPO) (Amgen Inc., Thousand Oaks, Calif.). Cells at this time point were exposed to Trichostatin (TSA) (Sigma Chemical., St. Louis, Mo.) at 5 ng/mL and the culture was continued for an additional 7 days. At the end of the culture period cells were counted for viability by the trypan blue exclusion method using an inverted microscope. 5-fluorouracil (5-FU) (Sigma Chemical., St. Louis, Mo.) was used at a concentration of 200 μg/ml and added at the 16 hour time point instead of 5azaD and the cultures carried on as described above with no addition of TSA.
(§3) The phenotypic characteristics of the CD34^+ cells were analyzed using FACS. After 9 days of culture, expanded marrow CD34^+ cells were analyzed for primitive HSC phenotype, previously defined, by using flow activated-cell sorter (FACS) (Becton Dickinson (BD) FACS Calibur, San Jose, Calif.). Cells were stained with anti-human CD34^+ moAb conjugated either to fluorescein isothiocyanate (FITC) or phycoerythrin (PE) and another moAb including anti-CD38, anti-CD117, anti-CD90. To determine the lineage positive cells a panel of moab all conjugated to FITC (anti-CD2, anti-CD14, anti-CD15, anti-CD19 and anti-GlyA) (all antibodies were purchased from BD) were utilized. All anaylsis were paired with the corresponding matched isotype control of the specific moAb utilized. All staining and washes were performed in DPBS (Biowhittaker, Walkersville Md.) and 0.5% BSA (Sigma, Chemicals Co., St. Louis, Mo.). Immediately prior to FACS anaylsis, […] propidium iodide (PI) (Sigma, Chemicals Co., St. Louis, Mo.) was added for the exclusion of nonviable cells for phenotypic analysis. Using Cell-Quest software (BD), at least 10,000 live cells were acquired for each analysis.

[2] = test system: adult human bone marrow CD34+ cells; experiment: Ex vivo expansion culture: cell counts and CD34+CD90+ cell numbers
Description: as §1, §2, §3

[3] = test system: adult human bone marrow CD34+ cells; experiment: Colony-forming cell (CFC) assay in methylcellulose
Description: Colony-forming cells (CFC) were assayed under standard conditions in semisolid media as previously described (Brandt et al., Blood 94:106-113, 1999). Briefly 1×10^3 primary CD34^+ cells or unfractionated cultured cells exposed to different conditions used following 9 days of culture were plated in duplicate cultures containing 1 ml IMDM with 1.1% methylcellulose, 30% FBS, 5×10^−5 M 2-mercaptoethanol (Methocult, Stem Cell Technologies, Vancouver, BC, Canada), and a cocktail of growth factors including 100 ng/ml of SCF, 5 U/mL of EPO, 50 ng/mL of IL-3, 50 ng/mL of IL-6 and 50 ng/mL of G-CSF (Amgen Inc., Thousand Oaks, Calif.). The cells were plated into 35 mm tissue-culture dishes (Costar), and after 14 days of incubation at 37° C. in a 100%-humidified atmosphere containing 5% CO2, the colonies were scored with an inverted microscope following standard criteria (Breems et al., Leukemia, 8:1095-1104, 1994).

[4] = test system: adult human bone marrow CD34+ cells; experiment: Colony-forming cell (CFC) assay in methylcellulose; conditions: after 5 days
[5] = 9 days of culture, single agent, % of total cells
[6] = 9 days of culture, single agent
[7] = 9 days with cytokines, mean of 3 ± SEM
[8] = colonies/plate, cells after 9 days with cytokines, mean of 2 ± SEM

O=c1[nH]cc(F)c(=O)[nH]1 [5-FU, 5-fluorouracil]
CD34+ CD90+ % [1, 5]: 1.2%
CD34+ CKit lo % [1, 5]: 4%
CD34+ Lin− % [1, 5]: 27%
CD34+CD38− % [1, 5]: 27%
Total CD34+ % [1, 5]: 27%
% of CD34+ cells that were CD90+ ([1]; day 9): 10%
% of cells that were CD34+ ([1]; day 9): 20%
% CD34+ of all cells [2, 6]: 26%
% CD34+ thy-1+ cells [2, 6]: 1%
Absolute CD34+ thy-1+ cells ×10^5 [2, 6]: 0.0002 ×10^5
Absolute CD34 counts ×10^5 [2, 6]: 0.0065 ×10^5
Fold changes from the original cells ([2]; 9 days of culture, single agent, CD34+CD90+ cells): 0.001 fold
Total counts ×10^5 ([2]; 9 days of culture, single agent, start 1×10^5 CD34+ cells/well): 0.025 ×10^5
Absolute CD34+ Number (×10^4) [2, 7]: 0.1 ± 0.0 ×10^4
Absolute CD34+CD90+ Numbers (×10^4) [2, 7]: 0.0 ×10^4
Total Mononuclear Cell Number (×10^4) [2, 7]: 0.3 ± 0.0 ×10^4
CD34+CD90+ cells observed ([2]; by day 9): no CD34^+CD90^+ cells were observed
Fold Expansion of CD34+CD90+ ([2]; compared to the primary cell numbers, mean of 3 ± SEM): 0.0 fold
absolute number of CD34+CD90+ cells in the culture ([2]; day 9, from 22,000 at start): 700
assayable hematopoietic progenitor cells ([3]; 9 days with cytokines, compared with primary cells): no assayable hematopoietic progenitor cells
Total Number Colonies/plate ([3]; cells after 9 days with cytokines, mean of 2 ± SEM): 0
BFU-E [3, 8]: 0
CFU-GM [3, 8]: 0
CFU-Mix [3, 8]: 0
Plating Efficiencies ([3]; total number of hematopoietic colonies/total cells plated × 100): 0
assayable hematopoetic progenitor cells [4]: no assayable hematopoetic progenitor cells
